Results published in patent EP4374708A1, “NUTRITIONAL SUPPLEMENT PREPARATION” (Avea Life AG, priority 2022, dated 2024).
Values after ≈ are worked out from the molar mass of the structure shown.

Experiment: physchem
Details: water

solubility: 198 mM (≈ 26 mg/mL)
Structure (SMILES): O=C(O)[C@@H]1C[C@@H](O)CN1 [hydroxyproline]
